The record followed here is PMC7714403 (JCI Insight, 2020).

Assay [1] addresses RAF1 (Homo sapiens, UniProt P04049). Briefly: KiNativ, OCI cells live cell. It is filed as cell-based. The note with it: 2 h, labeling site Lys2, peptide […].
The target in assay [2] is T1, GCK (Homo sapiens, UniProt Q12851).
T1 sequence (Q12851 1-820): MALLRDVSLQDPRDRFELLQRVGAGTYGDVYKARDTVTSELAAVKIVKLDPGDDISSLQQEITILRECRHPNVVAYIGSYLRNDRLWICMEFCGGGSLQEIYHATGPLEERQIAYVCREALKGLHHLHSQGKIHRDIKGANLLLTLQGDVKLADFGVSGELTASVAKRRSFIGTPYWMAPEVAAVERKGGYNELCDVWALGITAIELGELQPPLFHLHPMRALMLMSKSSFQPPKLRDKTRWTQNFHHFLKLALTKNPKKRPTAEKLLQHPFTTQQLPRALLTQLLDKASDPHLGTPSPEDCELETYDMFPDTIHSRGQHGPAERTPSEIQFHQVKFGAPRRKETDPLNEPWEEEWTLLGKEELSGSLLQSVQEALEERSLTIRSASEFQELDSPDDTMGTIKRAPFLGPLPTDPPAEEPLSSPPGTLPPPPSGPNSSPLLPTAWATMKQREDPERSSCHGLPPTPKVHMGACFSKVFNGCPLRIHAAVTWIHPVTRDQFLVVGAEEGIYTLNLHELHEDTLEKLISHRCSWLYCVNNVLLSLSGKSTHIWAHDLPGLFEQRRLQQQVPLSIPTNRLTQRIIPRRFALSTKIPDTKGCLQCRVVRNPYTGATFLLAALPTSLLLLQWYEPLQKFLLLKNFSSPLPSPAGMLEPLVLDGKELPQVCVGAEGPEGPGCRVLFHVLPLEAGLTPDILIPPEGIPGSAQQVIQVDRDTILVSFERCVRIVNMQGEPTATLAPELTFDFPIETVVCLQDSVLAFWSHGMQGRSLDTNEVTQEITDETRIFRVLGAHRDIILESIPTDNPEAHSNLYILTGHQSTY
Briefly: Kinase assay by Reaction Biology. The format is biochemical. Details: purchased Eurofins DiscoverX.

The target in assay [3] is SLK (Homo sapiens, UniProt Q9H2G2). Briefly: KiNativ, OCI cells live cell. It is filed as cell-based. The note with it: 2 h, labeling site Lys2, peptide […].
Assay [4] addresses FLT3-ITD and TKD mutants. Briefly: KdELECT binding assay. The note with it: range over FLT3-ITD and TKD mutants.
For assay [5], the target named is PIK3C2B (Homo sapiens, UniProt O00750). Briefly: KiNativ, OCI cells live cell. The format is cell-based. Conditions: 2 h, labeling site ATP, peptide […].
Assay [6] has as its target T1, GCK. Briefly: KdELECT binding assay. Details: purchased Eurofins DiscoverX.
In assay [7] the target is T2, IRAK3 (Homo sapiens, UniProt Q9Y616).
T2 sequence (Q9Y616 1-596): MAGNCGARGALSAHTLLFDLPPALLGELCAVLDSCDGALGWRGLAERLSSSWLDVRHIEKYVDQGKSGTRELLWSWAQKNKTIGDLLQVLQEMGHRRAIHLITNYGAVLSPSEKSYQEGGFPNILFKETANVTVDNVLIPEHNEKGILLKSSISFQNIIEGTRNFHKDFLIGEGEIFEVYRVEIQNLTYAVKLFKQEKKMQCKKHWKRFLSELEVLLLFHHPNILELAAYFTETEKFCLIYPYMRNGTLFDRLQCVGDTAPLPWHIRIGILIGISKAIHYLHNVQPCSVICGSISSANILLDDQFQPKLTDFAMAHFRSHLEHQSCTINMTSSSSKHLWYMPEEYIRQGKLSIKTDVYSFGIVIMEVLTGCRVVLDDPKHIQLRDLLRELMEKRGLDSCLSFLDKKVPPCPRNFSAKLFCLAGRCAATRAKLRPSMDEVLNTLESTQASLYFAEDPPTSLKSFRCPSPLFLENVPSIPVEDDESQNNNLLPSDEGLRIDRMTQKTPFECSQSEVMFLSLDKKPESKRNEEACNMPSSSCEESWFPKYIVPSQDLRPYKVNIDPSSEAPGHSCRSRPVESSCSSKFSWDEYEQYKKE
Briefly: KiNativ, OCI cells live cell. Conditions: 2 h. The format is cell-based.

The target in assay [8] is BTK (Homo sapiens, UniProt Q06187). Description: KiNativ, OCI cells live cell. It is filed as cell-based. Conditions: labeling site Activation Loop, peptide YVLDDEYTSSVGSKFPVR
The target in assay [9] is TAO2 (Homo sapiens, UniProt Q9UL54). Briefly: KiNativ, OCI cells live cell. It is filed as cell-based. The note with it: 2 h, labeling site Lys2, peptide […].
The target of assay [10] is ROCK1 (Homo sapiens, UniProt Q13464). Description: KiNativ, OCI cells live cell. It is filed as cell-based. Conditions: 2 h, labeling site Other, peptide […].
The test system of assay [11] is MV4-11, MOLM13, and MOLM13-RES cells. Description: CD11b expression assay. It is filed as cell-based, human. The note with it: 20 nM, 72 hours. How it is done: (§1) Apoptosis and CD11b expression assays
(§2) At indicated time points, cells were collected and washed with PBS. CD11b expression was measured using anti-CD11b -APC antibody (BioLegend, San Diego, CA). Each sample was suspended in 100uL of FACS buffer (PBS + 4% FBS) with 1uL of antibody, incubated on ice for 15 minutes in the dark and washed once in PBS. DAPI (final concentration 1ug/mL [ThermoFisher Scientific]) was added to each sample as a viability dye. For apoptosis assay, cells were incubated with annexin V-APC (BioLegend) according to manufacturer’s instructions. CD11b expression and apoptosis were measured by BD LSR II flow cytometer. Two-color cytometry was performed, and data were […]
(§3) points, cells were collected and washed with 0.1% EDTA PBS (Ricca Chemical Company, Arlington, TX) followed by only PBS. Cells were then fixed on ice with ice-cold 70% ethanol for 30 minutes . Cells were either stored at -20°C for up to 1 month or processed immediately. Cells were spun down at 450 x g for 10 minutes and stained

Assay [12] concerns OCI-AML3 cells. Description: CD11b expression assay. The format is cell-based, human. Conditions: 20 nM and 50 nM, 72 hours. How it is done: as §1, §2, §3
Assay [13] concerns the target T3, FLT3 D835V (Homo sapiens, UniProt P36888, D835V).
T3 construct: purchased Eurofins DiscoverX
Description: KdELECT binding assay.

Assay [14] concerns the target LKB1 (Homo sapiens, UniProt Q15831). Briefly: KiNativ, OCI cells live cell. It is filed as cell-based. The note with it: 2 h, labeling site Lys2, peptide […].
The subject of assay [15] is FYN, SRC, YES. Briefly: KiNativ, OCI cells live cell. It is filed as cell-based, human. The note with it: labeling site Activation Loop, peptide QGAKFPIKWTAPEAALYGR

TAO2, sequence (Q9UL54 whole entry): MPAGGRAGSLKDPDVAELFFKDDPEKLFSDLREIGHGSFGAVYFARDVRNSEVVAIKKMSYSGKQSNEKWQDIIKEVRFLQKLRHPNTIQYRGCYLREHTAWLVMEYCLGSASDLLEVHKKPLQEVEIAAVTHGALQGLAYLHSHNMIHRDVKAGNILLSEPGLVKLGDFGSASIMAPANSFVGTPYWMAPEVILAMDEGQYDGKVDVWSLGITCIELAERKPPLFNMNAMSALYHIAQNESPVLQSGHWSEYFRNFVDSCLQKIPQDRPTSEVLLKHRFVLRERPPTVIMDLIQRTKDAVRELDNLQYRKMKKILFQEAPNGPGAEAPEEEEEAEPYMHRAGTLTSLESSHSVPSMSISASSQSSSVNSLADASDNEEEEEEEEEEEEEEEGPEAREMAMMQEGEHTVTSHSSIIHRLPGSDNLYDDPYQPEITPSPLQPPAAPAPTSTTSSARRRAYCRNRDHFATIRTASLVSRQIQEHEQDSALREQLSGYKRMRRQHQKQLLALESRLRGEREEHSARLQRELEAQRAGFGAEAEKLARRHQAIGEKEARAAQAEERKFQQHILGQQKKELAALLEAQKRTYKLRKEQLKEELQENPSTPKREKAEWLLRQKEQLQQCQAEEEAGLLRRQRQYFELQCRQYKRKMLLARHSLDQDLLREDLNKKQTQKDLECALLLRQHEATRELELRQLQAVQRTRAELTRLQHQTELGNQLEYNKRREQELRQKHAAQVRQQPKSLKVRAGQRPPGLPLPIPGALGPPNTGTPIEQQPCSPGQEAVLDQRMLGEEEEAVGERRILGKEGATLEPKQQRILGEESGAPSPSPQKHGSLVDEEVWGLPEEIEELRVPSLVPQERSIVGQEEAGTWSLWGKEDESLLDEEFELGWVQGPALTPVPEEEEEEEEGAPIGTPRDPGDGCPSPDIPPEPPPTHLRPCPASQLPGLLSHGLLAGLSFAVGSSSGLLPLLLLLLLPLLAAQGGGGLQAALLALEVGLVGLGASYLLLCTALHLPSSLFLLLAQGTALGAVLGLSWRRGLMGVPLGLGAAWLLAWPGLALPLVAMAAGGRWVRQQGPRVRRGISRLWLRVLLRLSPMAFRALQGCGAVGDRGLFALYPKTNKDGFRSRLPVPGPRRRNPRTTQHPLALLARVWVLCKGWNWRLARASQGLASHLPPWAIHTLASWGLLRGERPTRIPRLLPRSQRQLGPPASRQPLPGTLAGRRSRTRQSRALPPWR
ROCK1, sequence (Q13464 whole entry): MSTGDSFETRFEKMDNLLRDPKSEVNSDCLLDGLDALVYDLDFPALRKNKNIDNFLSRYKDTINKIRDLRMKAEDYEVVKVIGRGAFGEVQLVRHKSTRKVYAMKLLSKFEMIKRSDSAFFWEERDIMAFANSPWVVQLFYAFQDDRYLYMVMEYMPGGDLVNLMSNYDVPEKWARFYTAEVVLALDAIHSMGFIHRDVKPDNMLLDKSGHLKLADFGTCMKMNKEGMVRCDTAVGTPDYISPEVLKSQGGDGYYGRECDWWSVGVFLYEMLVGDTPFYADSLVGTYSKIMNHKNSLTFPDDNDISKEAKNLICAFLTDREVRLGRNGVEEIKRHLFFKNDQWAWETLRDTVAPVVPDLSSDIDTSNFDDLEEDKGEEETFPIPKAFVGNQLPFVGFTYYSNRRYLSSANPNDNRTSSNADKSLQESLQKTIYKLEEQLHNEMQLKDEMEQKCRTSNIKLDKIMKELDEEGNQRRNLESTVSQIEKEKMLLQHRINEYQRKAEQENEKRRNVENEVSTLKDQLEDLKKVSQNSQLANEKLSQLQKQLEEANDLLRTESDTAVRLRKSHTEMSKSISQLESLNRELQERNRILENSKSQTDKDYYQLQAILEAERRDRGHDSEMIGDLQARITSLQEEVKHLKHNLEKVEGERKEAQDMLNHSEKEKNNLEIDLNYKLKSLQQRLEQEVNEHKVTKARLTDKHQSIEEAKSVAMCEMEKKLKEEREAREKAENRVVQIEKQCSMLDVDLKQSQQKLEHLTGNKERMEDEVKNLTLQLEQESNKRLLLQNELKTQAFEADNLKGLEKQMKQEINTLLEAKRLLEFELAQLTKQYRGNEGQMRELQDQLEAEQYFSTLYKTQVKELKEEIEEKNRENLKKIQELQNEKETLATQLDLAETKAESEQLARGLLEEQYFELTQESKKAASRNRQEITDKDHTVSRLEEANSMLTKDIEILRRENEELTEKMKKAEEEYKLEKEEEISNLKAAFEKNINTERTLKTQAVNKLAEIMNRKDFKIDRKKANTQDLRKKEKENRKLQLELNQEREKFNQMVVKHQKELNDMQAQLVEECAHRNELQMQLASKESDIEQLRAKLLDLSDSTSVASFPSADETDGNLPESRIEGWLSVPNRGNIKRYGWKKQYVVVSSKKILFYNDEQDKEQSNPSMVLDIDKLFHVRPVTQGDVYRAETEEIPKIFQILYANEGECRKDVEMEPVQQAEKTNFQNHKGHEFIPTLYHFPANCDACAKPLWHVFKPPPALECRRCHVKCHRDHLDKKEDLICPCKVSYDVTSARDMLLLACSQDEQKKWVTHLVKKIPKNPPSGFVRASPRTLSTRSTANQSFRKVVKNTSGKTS
RAF1, sequence (P04049 whole entry): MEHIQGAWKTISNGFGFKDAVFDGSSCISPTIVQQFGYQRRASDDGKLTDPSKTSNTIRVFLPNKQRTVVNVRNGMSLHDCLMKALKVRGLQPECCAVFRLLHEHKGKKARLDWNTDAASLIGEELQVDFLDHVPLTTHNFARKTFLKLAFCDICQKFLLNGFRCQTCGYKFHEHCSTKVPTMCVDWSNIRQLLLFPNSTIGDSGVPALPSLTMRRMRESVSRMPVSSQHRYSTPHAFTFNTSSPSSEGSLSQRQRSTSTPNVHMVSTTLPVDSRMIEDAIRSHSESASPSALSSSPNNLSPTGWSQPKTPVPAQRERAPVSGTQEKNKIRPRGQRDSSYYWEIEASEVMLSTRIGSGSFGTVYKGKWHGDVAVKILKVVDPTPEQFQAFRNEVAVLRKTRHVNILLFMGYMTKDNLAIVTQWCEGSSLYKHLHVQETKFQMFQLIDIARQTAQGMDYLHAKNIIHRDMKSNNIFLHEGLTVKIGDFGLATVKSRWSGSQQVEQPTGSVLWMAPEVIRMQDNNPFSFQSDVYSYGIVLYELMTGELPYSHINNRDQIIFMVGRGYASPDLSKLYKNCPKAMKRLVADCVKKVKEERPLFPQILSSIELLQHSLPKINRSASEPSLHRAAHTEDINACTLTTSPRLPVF
LKB1, sequence (Q15831 1-430 limits assumed): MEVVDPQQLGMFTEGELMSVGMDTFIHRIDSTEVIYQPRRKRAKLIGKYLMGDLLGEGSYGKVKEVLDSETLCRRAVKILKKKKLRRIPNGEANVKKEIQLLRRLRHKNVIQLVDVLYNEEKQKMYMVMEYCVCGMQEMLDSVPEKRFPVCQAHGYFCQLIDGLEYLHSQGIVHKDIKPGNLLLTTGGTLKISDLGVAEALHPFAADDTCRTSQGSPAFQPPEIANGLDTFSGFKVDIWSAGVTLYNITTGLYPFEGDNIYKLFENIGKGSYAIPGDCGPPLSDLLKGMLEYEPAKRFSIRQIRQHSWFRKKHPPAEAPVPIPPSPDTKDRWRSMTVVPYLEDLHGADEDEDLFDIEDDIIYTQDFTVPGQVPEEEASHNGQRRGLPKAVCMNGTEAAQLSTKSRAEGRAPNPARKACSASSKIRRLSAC
LKB1, sequence (Q7RTN6 whole entry partner): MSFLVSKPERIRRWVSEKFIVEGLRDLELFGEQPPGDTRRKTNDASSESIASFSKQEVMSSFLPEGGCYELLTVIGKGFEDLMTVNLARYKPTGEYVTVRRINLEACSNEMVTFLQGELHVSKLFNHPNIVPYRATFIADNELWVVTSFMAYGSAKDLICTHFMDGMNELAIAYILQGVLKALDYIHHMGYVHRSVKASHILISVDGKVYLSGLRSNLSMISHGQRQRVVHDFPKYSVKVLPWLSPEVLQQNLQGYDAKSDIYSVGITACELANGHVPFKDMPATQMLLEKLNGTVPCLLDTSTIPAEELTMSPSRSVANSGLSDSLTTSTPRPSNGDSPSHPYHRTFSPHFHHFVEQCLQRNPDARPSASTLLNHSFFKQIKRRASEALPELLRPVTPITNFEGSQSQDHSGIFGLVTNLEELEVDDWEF
LKB1, sequence (Q9Y376 whole entry partner): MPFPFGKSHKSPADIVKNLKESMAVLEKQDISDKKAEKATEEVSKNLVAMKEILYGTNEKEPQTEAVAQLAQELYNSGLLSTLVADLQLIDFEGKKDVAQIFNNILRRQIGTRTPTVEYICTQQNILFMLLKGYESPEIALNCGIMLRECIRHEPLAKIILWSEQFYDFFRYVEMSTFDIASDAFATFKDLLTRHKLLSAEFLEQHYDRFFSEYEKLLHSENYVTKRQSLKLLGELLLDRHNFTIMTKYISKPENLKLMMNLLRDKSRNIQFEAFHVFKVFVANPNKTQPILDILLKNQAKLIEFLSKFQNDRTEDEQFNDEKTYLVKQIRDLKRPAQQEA

Broadly, the inhibition is the share of the control response that was lost under treatment. Broadly, the IC50 is the point on the concentration scale where inhibition reaches its midpoint. Read a low IC50 as inhibition by little substance. A word on the Kd: it is a measure of binding affinity in units of concentration. Lower therefore signals tighter binding. In general, Inhibition refers to the change of the read-out against control, counted positive when it falls. A higher Inhibition goes with a strong effect. Turning to `CN1CCN(Cc2ccc(Nc3ncc(Cl)c(Nc4ccccc4S(=O)(=O)N(C)C)n3)cc2)CC1` [TP-0903], the inhibition at 0.1 µM was 7% in assay [1]; 86.1% in [3]; 0.282% in [5]; 87.9% in assay [7] (labeling site Lys1, peptide VEIQNLTYAVKLFK); 94.9% in assay [7] (labeling site Protein Kinase Domain, peptide SHLEHQSCTINMTSSSSKHLWYMPEEYIR); 73.7% in assay [9]. For the same molecule, the figures for the inhibition at 0.1 µM in assay [10] and in assay [14] were 25% and 25.7%, respectively. Also, in [2], the half-maximal inhibitory concentration (IC50) stood at 2.5 nM. In addition, the figures for the Kd in [4], in assay [6] and in assay [13] were 0.79 to 5.6 nM, 1.8 nM and 2.1 nM, respectively. Further, the Inhibition in assay [8] stood at 57.3%; in assay [15] it was 16.0%. Besides, the “Cell surface expression of CD11b” value in [11] was “increased”. Further, the CD11b expression result in [12] is given as “increase”.
